TGI and GI50 data for eight molecules are collected here from PubChem BioAssay (NCI).

SMILES strings stand for the structures. Where “and” joins values, the source holds several entries; their conditions need not be identical. Equal values may be shown once.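 Exposure lasted 48 hours, with cells grown in 96-well plates and compounds tested at five concentrations. GI50 marks 50% less growth. The concentration for full growth arrest is given as TGI.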 Some results are limits rather than exact numbers.

Experiment in all cases: NCI tumour cell line growth inhibition, 48 h
Assay [1] has as its system DU-145 prostate.
Assay [2] concerns SK-MEL-2 melanoma.
Assay [3] has as its system KM12 colon.
Assay [4] concerns SK-MEL-28 melanoma.
For assay [5], the system named is M14 melanoma.
In assay [6] the test system is NCI-H460 lung.
Assay [7] has as its system HCT-15 colon.
In assay [8] the test system is MDA-MB-435.
The test system of assay [9] is SR leukemia.

Turning to `CN(C)/N=C(/CC(O)(C(F)(F)F)C(F)(F)F)c1ccc([N+](=O)[O-])cc1`, the TGI in assay [1], in [2], in [3], in assay [4], in [5] and in assay [6] was greater than 100 µM each time. The TGI in assay [7], in [8] and in assay [9] was greater than 100 µM each time.

As for `CC/C=C\C[C@H](F)C/C=C1/C(=O)C=C[C@@H]1C/C=C\CCCC(=O)O`, the GI50 in assay [1] was 8.02 µM; in assay [2], 6.7 µM; in assay [3] it was 4.65 µM; in assay [4], 4.98 µM; in [5] it was 6.53 µM; in [6], 9.35 µM. For the same molecule, the GI50 in assay [7] is 4.45 µM; in assay [8], 4.06 µM; in [9], 1.04 µM. In addition, the TGI worked out at 32.4 µM in assay [1]; 16.9 µM in [2]; 13.3 µM in assay [3]; 11.4 µM in assay [4]; 20 µM in [5]; 30.9 µM in [6]. The TGI in [7] is 13.8 µM; in [8], 11.3 µM; in assay [9] it was 7.49 µM.

For `O=S(=O)(NC1=NCCN1C(=S)SN1CCn2c1nsc2=S)c1cccc(Cl)c1`, the GI50 was 22.2 µM in assay [1]; 26 µM in [2]; 16.6 µM in assay [3]; 21.4 µM in [4]; 15.8 µM in [5]; 22.5 µM in assay [6]. The GI50 is 11.9 µM in [7], 9.69 µM in assay [8] and 4.89 µM in [9]. Moreover, the TGI in [1] stood at 64.6 µM; in assay [2], 98.9 µM; in [3], 34.1 µM; in assay [4], 39.7 µM; in assay [5] it was 33.2 µM; in assay [6] it was 72.9 µM. Further, the TGI in assay [7] was 26.7 µM; in [8], 27.7 µM; in assay [9], 50.7 µM.

`Nc1nccc(-c2c(-c3ccc(F)cc3)ncn2C2CCC(O)CC2)n1` (configuration not stated): the GI50 is 11.2 µM in assay [1]; 24.7 µM in assay [2]; 7.82 µM in assay [3]; 14.8 µM in assay [4]; 14 µM in assay [5]; 4.95 µM in assay [6]. For the same molecule, the GI50 in assay [7] is 7.15 µM; in assay [8] it was 6.75 µM; in assay [9] it was 12.5 µM. Moreover, the TGI in assay [1], in assay [2], in [3], in [4], in assay [5] and in assay [6] was greater than 25 µM in each case. Moreover, the TGI in assay [7], in assay [8] and in assay [9] was greater than 25 µM each time.

As for `Cc1ccc2c(c1)Sc1c(ccc3ccccc13)N2`, the GI50 in assay [1] is greater than 100 µM; in assay [2], greater than 100 µM; in assay [3], 48.7 µM; in assay [4], greater than 100 µM; in [5], greater than 100 µM; in assay [6], 5.37 µM. Moreover, the GI50 in assay [7] is 1.45 µM; in assay [8] it was greater than 100 µM; in [9], 4.4 µM. Also, the TGI in assay [1], in [2], in assay [3], in assay [4], in [5] and in assay [6] was greater than 100 µM in each case. Moreover, the TGI in assay [7], in assay [8] and in assay [9] was greater than 100 µM in each case.

Regarding `O=C1C(Cl)=C(NCCN2CCOCC2)C(=O)c2ncccc21`, the TGI in assay [1] is 3.11 µM and 3.14 µM; in assay [2], 4.37 µM; in [3], 3.1 µM and 16.1 µM; in assay [4] it was 3.29 µM; in assay [5] it was 3.17 µM and 3.25 µM; in assay [6], 3.23 µM and 5.37 µM. For the same molecule, the TGI is 4.17 µM and 3.62 µM in [7]; 0.372 µM and 0.686 µM in [8]; 5.61 µM in [9]. Besides, the GI50 was 2.16 µM in assay [2]; 3.55 µM in assay [3]; 1.95 µM in assay [6]; 1.68 µM in assay [7]; 0.267 µM in assay [8]; 2.01 µM in assay [9].

As to `O=C(O)/C=C(\c1nc2ccc([N+](=O)[O-])cc2[nH]1)c1cc(Cl)ccc1O`, the GI50 in assay [1] was 4.12 µM; in assay [2] it was 2.4 µM; in assay [3], 2.84 µM; in assay [4] it was 2.66 µM; in [5] it was 2.78 µM; in assay [6], 3.03 µM. Further, the GI50 in assay [7] was 2.9 µM; in assay [8], 2.84 µM; in assay [9], 3.23 µM. Moreover, the TGI in assay [1] is greater than 100 µM; in assay [2] it was 7.59 µM; in [3], 17.7 µM; in [4], 14.4 µM; in [5], 12 µM; in assay [6], 17.9 µM. Also, the TGI in assay [7] was 20.3 µM; in assay [8], 34.5 µM; in [9] it was 18.5 µM.

On to `CCCC(=O)OCC1OC(n2cnc3c(=S)nc[nH]c32)C(OC(=O)CCC)C1OC(=O)CCC` (configuration not stated), for which the GI50 is 3.06 µM in [1]; 28.1 µM in assay [2]; 4.99 µM in assay [3]; 77.5 µM in [4]; 2.23 µM in [5]; 8.13 µM in assay [6]. Moreover, the GI50 is 7.22 µM in assay [7], 3.55 µM in [8] and 2.02 µM in [9]. The TGI in assay [1], in assay [2], in [3], in [4], in assay [5] and in [6] was greater than 100 µM throughout. Besides, the TGI in assay [7] was greater than 100 µM; in assay [8], greater than 100 µM; in assay [9], 40.2 µM.
